Experimental data published in US6603023B2 (priority 1996, dated 2003).
Several values for one entry are separate records, joined by “and”; a condition that tells them apart may be missing. Equal entries are not always repeated. Where two headings read alike, the source gives them in different places.

What was measured:
DC-3F/ADX = assay: cells; format: cell-based, hamster; settings: DC3F/ADX, Table 3
Description: (§1) The DC-3F hamster lung fibroblast cell line and its actinomycin D-selected sublines (DC-3F/ADII and DC-3F/ADX) were obtained from the Memorial Sloan-Kettering Cancer Center (MSKCC).
(§2) The drug-resistant cell lines were continuously cultured in the presence of the selecting agent, AD, DX, VBL or VM to maintain the drug resistant phenotypes. […] All cells were cultured in RPMI 1640-10% FBS at 37° C. 5% CO2 (see below).
(§3) The cytotoxicity of the drug toward the monolayer cell cultures (such as DC-3F, MCF-7, SK-N-As and sublines) was determined in 96-well microtiter plates by the SRB method as described by Skehan and co-workers (Skehan, P., et al., J. Natl. Cancer Inst. 1990, 82, 1107-1112) for measuring the cellular protein content. Cultures were fixed with trichloroacetic acid and then stained for 30 min with 0.4% suforhodamine B dissolved in 1% acetic acid. Unbound dye was removed by acetic acid washes, and the protein-bound dye was extracted with an unbuffered Tris base (tris(hydroxy-methyl)aminomethane) for determination of absorbance at 570 nm in a 96-well microtiter plate reader. The experiments were carried out in duplicate. Each run entailed six to seven concentrations of the tested drugs. Data were analyzed with the median-effect plot (Chou, T.-C. & Talalay, P. T. (1984) Adv. Enzyme Regul. 22, 27-55) using a previously described computer program (Chou, J., & Chou T.-C. 1987, Dose-effect analysis with microcomputers: Quantitation of ED50, synergism, antagonism, low-dose risk, reception-ligand binding and enzyme kinetics, IBM-PC software and manual, Biosoft, Cambridge, U.K.).
(§4) Concerning Table 3, experiments were carried out using the cell lines DC-3F (parent hamster lung cells), DC-3F/ADII (moderate multidrug-resistant (MDR) cells) and DC-3F/ADX (very strong MDR cells).

[1] = test system: PC-3 Human Prostate Carcinoma; assay: PC-3 xenograft; format: in vivo, nude mice
DC-3F/ADII = assay: SRB cytotoxicity, DC-3F/ADII; format: cell-based, hamster; settings: Mesocricetus auratus, DC3F
Description: as §1, §2, §3, §4

[2] = test system: MDR human mammary adenocarcinoma MCF-7/Adr xenograft; assay: in vivo; settings: MCF-7/Adr; i.v. infusion (order wraps over rows r16-r17)
Description: DMSO was used as a vehicle for epothilones. Each mouse received ≦40 μL DMSO in all experiments.
Athymic nude mice (nu/nu) were used for MX-1 and MCF-7/Adr human mammary carcinoma xenografts. Mice were obtained from Taconic Laboratory Animals and Service (Germantown, N.Y.: outbred, Swiss background).

[3] = test system: CCRF-CEM human T-cell acute lymphoblastic leukemia cell line; assay: XTT cytotoxicity (cell growth inhibition), CCRF-CEM
Outline: (§5)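 XTT microculture tetrazolium readout, duplicate wells: 72 h compound incubation, then PMS-XTT (0.025 mM PMS) added, 4 h 37 °C, A450 and A630 measured. Suspension cells in RPMI-1640/10% FBS, 5×10^4 cells/mL; resistant sublines maintained with selecting drug.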

CCRF-CEM/VBL100 = assay: cells; format: cell-based, human; settings: for IC50: Homo sapiens, CCRF-CEM
Outline: as §5

CCRF-CEM/VM1 = assay: cells; format: cell-based, human
Outline: as §5

CCRF-CEM/Taxol® = assay: cells; format: cell-based, human
Outline: as §5

[4] = test system: A549 Human Lung Carcinoma; assay: A549 xenograft; format: in vivo, nude mice
[5] = test system: DC-3F hamster lung fibroblast cell line; assay: SRB cytotoxicity, DC-3F; format: cell-based; settings: Mesocricetus auratus, DC3F, Table 3
Description: as §1, §2, §3

[6] = dEpoB 30 mg/kg 18 hr i.v. infusion, Taxol 16 mg/kg 6 hr infusion, VBL 2 and VP-16 25 mg/kg i.v. inj
[7] = Homo sapiens, CCRF-CEM, 72 h, Table 1A, XTT
[8] = Homo sapiens, CCRF-CEM, Table 5, single determinations
[9] = Homo sapiens, CCRF-CEM, read-out: IC50 (mean ± of determinations, in parentheses), Table 5
[10] = Table 5, single determinations, listed as VP-16
[11] = Q2D x 3: dEpoB 30 mg/kg 18 hr i.v. infusion, Taxol 15 mg/kg 6 hr infusion, VBL 2 and VP-16 25 mg/kg i.v. inj

**Q.** What does the source list for `COc1cc([C@@H]2c3cc4c(cc3[C@@H](O[C@@H]3O[C@@H]5CO[C@@H](C)O[C@H]5[C@H](O)[C@H]3O)[C@H]3COC(=O)[C@H]23)OCO4)cc(OC)c1O` [Etoposide, etoposide]?
**A.** IC50 (DC-3F/ADX): 12.1 µM; Therapeutic effect Rank Order ([1]; PC-3, i.v. infusion (order wraps over rows r24-r25)): dEpoB >> VP-16; Average Body Weight (change), Day 9 [1, 6]: +0.3 g; Average Body Weight (change), Day 11 [1, 6]: -0.1 g; Average Body Weight (change), Day 13 [1, 6]: -2.4 g; Average Tumor Size (TC), Day 9 [1, 6]: 1.00 TC; Average Tumor Size (TC), Day 11 [1, 6]: 1.12 TC; Average Tumor Size (TC), Day 13 [1, 6]: 0.88 TC; Tumor Disappearance [1, 6]: 0/3; Average Body Weight, Day 5 ([1]; initial weight, dEpoB 30 mg/kg 18 hr i.v. infusion, Taxol 16 mg/kg 6 hr infusion, VBL 2 and VP-16 25 mg/kg i.v. inj): 24.9 g; IC50 (DC-3F/ADII): 0.632 µM; Therapeutic effect Rank Order [2]: dEpoB >> VP-16,; IC50 ([3]; Homo sapiens, CCRF-CEM): 0.29 µM; IC50 [3, 7]: 0.29 µM; IC50 ([3]; Homo sapiens, CCRF-CEM, Table 2): 0.221 µM; IC50 [3, 8]: 0.259 µM; IC50 [3, 9]: 0.293 µM; IC50 [3, 10]: 0.323 µM and 0.296 µM; Potency in parentheses relative to Epo B in CCRF-CEM cells (CCRF-CEM/VBL100; CCRF-CEM/VBL MDR cells): 1/29514; Potency in square brackets relative to Epo B in CCRF-CEM/VBL MDR cells (CCRF-CEM/VBL100; CCRF-CEM/VBL MDR cells): 1/4919; IC50 (CCRF-CEM/VBL100): 10.3 µM; IC50 (CCRF-CEM/VBL100; 72 h, Table 1A, XTT): 10.3 µM; IC50 (CCRF-CEM/VBL100; Table 2, CCRF-CEM/VLB): 7.39 µM; IC50 (CCRF-CEM/VBL100; read-out: IC50 (mean ± of determinations, in parentheses), Table 5): 10.3 µM; (B)/(A) IC50 ratio (CCRF-CEM/VBL100; Table 1A, CCRF-CEM/VBL100 vs CCRF-CEM): 35; relative resistance (fold) vs parent cell line (CCRF-CEM/VBL100; Table 5): (35.3X); fold resistance vs parent CCRF-CEM (CCRF-CEM/VM1; CCRF-CEM/VM1 cells): 117 fold; IC50 (CCRF-CEM/VM1; [7]): 34.4 µM; IC50 (CCRF-CEM/VM1; Homo sapiens, CCRF-CEM, Table 2, CCR-CEM/VM-1): 34.5 µM; IC50 (CCRF-CEM/VM1; [8]): 35.1 µM; IC50 (CCRF-CEM/VM1; [9]): 34.4 µM; (D)/(A) IC50 ratio (CCRF-CEM/VM1; Table 1A, CCRF-CEM/VM1 vs CCRF-CEM): 117; relative resistance (fold) vs parent cell line (CCRF-CEM/VM1; Table 5): (117.4X); IC50 (CCRF-CEM/VM1; [10]): 42.2 µM and 25.9 µM; IC50 (CCRF-CEM/Taxol®; Homo sapiens, CCRF-CEM, 72 h): 1.32 µM; (C)/(A) IC50 ratio (CCRF-CEM/Taxol®; Table 1A, CCRF-CEM/Taxol vs CCRF-CEM): 4.5; Therapeutic effect Rank Order ([4]; A549, i.v. infusion): Taxol ®, dEpoB, VBL > VP-16; Average Body Weight (change), Day 11 [4, 11]: +0.1 g; Average Body Weight (change), Day 13 [4, 11]: -0.2 g; Average Body Weight (change), Day 15 [4, 11]: -2.2 g; Tumor Disappearance [4, 11]: 0/3; Average Tumor Size, Day 11 ([4]; Q2D x 3: dEpoB 30 mg/kg 18 hr i.v. infusion, Taxol 15 mg/kg 6 hr infusion, VBL 2 and VP-16 25 mg/kg i.v. inj, control 96): 59 mm^3; Average Tumor Size, Day 13 ([4]; Q2D x 3: dEpoB 30 mg/kg 18 hr i.v. infusion, Taxol 15 mg/kg 6 hr infusion, VBL 2 and VP-16 25 mg/kg i.v. inj, control 128): 150 mm^3; Average Tumor Size, Day 15 ([4]; Q2D x 3: dEpoB 30 mg/kg 18 hr i.v. infusion, Taxol 15 mg/kg 6 hr infusion, VBL 2 and VP-16 25 mg/kg i.v. inj, control 306): 275 mm^3; Average Tumor Size, Day 17 ([4]; Q2D x 3: dEpoB 30 mg/kg 18 hr i.v. infusion, Taxol 15 mg/kg 6 hr infusion, VBL 2 and VP-16 25 mg/kg i.v. inj, control 553): 536 mm^3; Average Body Weight, Day 7 ([4]; initial weight, Q2D x 3: dEpoB 30 mg/kg 18 hr i.v. infusion, Taxol 15 mg/kg 6 hr infusion, VBL 2 and VP-16 25 mg/kg i.v. inj): 27.2 g; IC50 [5]: 0.0339 µM
